What follows are compounds tested on Plasmodium falciparum Dd2 asexual blood stage.

SMILES | IC50 [µM]
COC(=O)Nc1nc2cc(S(=O)c3ccccc3)ccc2[nH]1 (configuration not stated) | > 5
COc1ccc2c(c1)cc(CNC(=O)c1cc3ccccc3o1)n2CC(=O)O | > 5
CCc1c(OCC2CCC2)c2cc(F)ccc2[nH]c1=O | > 5
CC(N)C12CC3CC(CC(C3)C1)C2 (configuration not stated) | > 5
CC[N+]1(C/C2=C/CCCCCC2)CCC(NC(=O)C2c3cc(Cl)ccc3Oc3ccc(Cl)cc32)CC1 (configuration not stated) | > 5
CC(=O)Nc1cc(NS(=O)(=O)c2ccc(Cl)cc2)cc2c(Cl)n[nH]c12 | > 5
CCCCSc1nc(N)c2[nH]c(=O)c(=O)n(Cc3ccccc3)c2n1 | > 5
O=C1NC(=S)N/C1=C\c1cc(Br)cc(Br)c1O | > 5
Nc1nc(O)c2ncn(COCCO)c2n1 | > 5
Nc1nc(-c2ccccc2)nc2[nH]nc(Nc3ccc(C(F)(F)F)cc3)c12 | 4.1
COc1ccc(OCc2ccc(COc3c(Cl)cccc3Cl)cc2)c(Cl)c1 | > 5
CCn1cc(C(=O)O)c(=O)c2cc(F)c(N3CCNC(C)C3)c(F)c21 (configuration not stated) | > 5
CCC(CC)[C@H](NC(C)=O)[C@@H]1[C@H](O)[C@@H](C(=O)O)C[C@H]1NC(=N)N | > 5
CC[C@@H](CO)NCCN[C@@H](CC)CO | > 5
CO/N=C(\C(=O)N[C@@H]1C(=O)N2C(C(=O)OCOC(=O)C(C)(C)C)=C(/C=C\c3scnc3C)CS[C@H]12)c1csc(N)n1 | > 5
CSc1ccc2c(c1)C(N1CCN(C)CC1)Cc1ccccc1S2 (configuration not stated) | > 5
O=C1CCC(N2C(=O)c3ccccc3C2=O)C(=O)N1 (configuration not stated) | > 5
CC(C)(C)c1cc(CCC(=O)N2CCC2)cc(C(C)(C)C)c1O | > 5
Cc1onc(-c2ccccc2Cl)c1C(=O)N[C@@H]1C(=O)N2[C@@H]1SC(C)(C)[C@@H]2C(=O)O | > 5
CC(C)(C)c1ccc(C(Cn2cccc(C(F)(F)F)c2=O)NC2Cc3ccccc3C2)cc1 (configuration not stated) | 4.6
O=C(c1ccc(F)cc1)N1CCN2C(=O)c3ccccc3C12c1ccccc1 (configuration not stated) | > 5
CC(Oc1ccc(Cl)cc1Cl)C(=O)NCc1ccc2c(c1)OCO2 (configuration not stated) | > 5
Cc1nc(-c2ccc(C3N(C)c4ccc(F)cc4C(=O)N3c3ccccc3)s2)cs1 (configuration not stated) | > 5
COc1ccc(C)cc1NC(=O)c1ccc(S(=O)(=O)N2CCCCC2)cc1 | > 5
Clc1cccc(-c2nnc(-c3ccccc3)o2)c1 | > 5

SMILES | IC50 [µM]
O=S(=O)(Nc1ccc(-n2cccc2)cc1)c1ccc(Cl)c(Cl)c1 | > 5
OC(Cn1cncn1)(Cn1cncn1)c1ccc(F)cc1F | > 5
Fc1ccc2c(/C=C/c3nnn[nH]3)c[nH]c2c1 | > 5
COc1ccc(C(C)(C)C)cc1NC(=O)C(=O)c1ccc(OCCN2CCOCC2)c2ccccc12 | > 5
CNCC(=O)OCc1cccnc1N(C)C(=O)OC(C)[n+]1cnn(C[C@](O)(c2cc(F)ccc2F)[C@@H](C)c2nc(-c3ccc(C#N)cc3)cs2)c1 (some centres not stated) | > 5
O=c1[nH]c(=O)n(Cc2cccc(Oc3ccccc3)c2)cc1Nc1ccccc1 | > 5
COc1cc(Cc2cnc(N)nc2N)cc(OC)c1OC | > 5
CNC(=O)C1O[C@@H](n2cnc3c(NCc4cccc(I)c4)nc(Cl)nc32)[C@H](O)[C@@H]1O (some centres not stated) | > 5
FC(F)(F)Oc1ccc(Nc2ccc3cccc(Cl)c3n2)cc1 | > 5
O=S(=O)(Nc1ccc(O)cc1)c1cccc2cccnc12 | > 5
CCc1nc2ccccn2c1C(=O)NCc1ccccc1 | > 5
Cc1ccccc1NC(=O)Nc1cccc([N+](=O)[O-])c1 | > 5
O=c1cc(OCc2ccccc2)ccn1Cc1ccccc1 | > 5
CN(C)CC(=O)Nc1ccc2[nH]c(=O)c3ccccc3c2c1 | > 5
NC[C@H]1O[C@H](O[C@H]2[C@H](O)[C@@H](O[C@H]3O[C@H](CO)[C@@H](O)[C@H](N)[C@H]3O)[C@H](N)C[C@@H]2N)[C@H](N)C[C@@H]1O | > 5
N=C(N)c1ccc(COc2ccc(Cl)cc2)cc1 | > 5
Oc1ccc2[nH]c(-c3ccccc3)nc2c1 | > 5
NC(=O)c1cnccn1 | > 5
CC(C)(C)NC(=O)[C@@H]1C[C@@H]2CCCC[C@@H]2CN1C[C@@H](O)[C@H](Cc1ccccc1)NC(=O)[C@H](CC(N)=O)NC(=O)c1ccc2ccccc2n1 | > 5
CC[C@@]1(O)C(=O)OCc2c1cc1n(c2=O)Cc2cc3c(CN(C)C)c(O)ccc3nc2-1 | 4.12
CC(C)c1cc2c(cc1S(=O)(=O)O)[C@@]1(C)CCC[C@@](C)(C(=O)O)[C@@H]1CC2 | > 5
COc1cccc(N2CCN(C3=Nc4c(F)cccc4[C@H](CC(=O)O)N3c3cc(C(F)(F)F)ccc3OC)CC2)c1 | > 5
O=C(CP(=O)(O)O)NCCc1cccc(Oc2ccccc2)c1 | > 5
CC[C@@H]1C(=O)OC[C@@H]1Cc1cncn1C | > 5
Cc1c(F)cccc1NC(=O)Nc1ccc(Cl)c(S(=O)(=O)[C@H]2CCCNC2)c1O | > 5

SMILES | IC50 [µM]
CCCCCCCc1[nH]c2ccccc2c(=O)c1O | 4.88
CCC[C@H](NC(=O)[C@@H]1[C@H]2CCC[C@H]2CN1C(=O)[C@@H](NC(=O)[C@@H](NC(=O)c1cnccn1)C1CCCCC1)C(C)(C)C)C(=O)C(=O)NC1CC1 | > 5
Cc1c(CN(C)C(=O)/C=C/c2cnc3c(c2)C(C)(C)C(=O)N3)oc2ccccc12 | > 5
CCOC(=O)/C=C/[C@H](C[C@@H]1CCNC1=O)NC(=O)[C@H](CC)n1cccc(NC(=O)c2cc(C)on2)c1=O | > 5
NC(=O)c1cnc2ccc(S(=O)(=O)c3ccccc3)cc2c1Nc1ccc(O)cc1 | > 5
O=C(Nc1ccc(-c2ccccc2)cc1)C1=C(O)C(Cc2ccccc2)OC1=O (configuration not stated) | > 5
Nc1nc(NC2Cc3ccc(F)cc3C2)nc(N2CCCCC2)n1 (configuration not stated) | > 5
Cc1c[nH]c(=O)nc1NCc1ccccc1 | > 5
Cc1cc(C2CCCCC2)n(O)c(=O)c1 | 4.8
CCCCCCC1c2ccc(O)cc2Oc2cc(O)ccc21 | > 5
Cc1ccn2c(C(=O)NCc3ccccc3)c(C)nc2c1 | > 5
O=C(NC1CCCc2c1[nH]c1ccc(Cl)cc21)c1ccccn1 (configuration not stated) | > 5
Nc1nc(N)c2c(Sc3ccccc3)cccc2n1 | > 5
Nc1nnnn1CCOc1c2[nH]c3ccc(Cl)cc3c2cc2c1[nH]c1ccc(Cl)cc12 | > 5
CC(=O)O[C@H]1C[C@@]2(C)[C@@H](C[C@@H](O)[C@H]3[C@@]4(C)CC[C@@H](O)[C@@H](C)[C@@H]4CC[C@@]32C)/C1=C(\CCC=C(C)C)C(=O)O | > 5
Cc1nc(N(C)C(=O)Cc2ccc(-c3ccccn3)cc2)sc1S(N)(=O)=O | > 5
CN(O)C(=O)c1cc2c(CN3CCC[C@H]3C(N)=O)cn(Cc3ccc(F)cc3)c2cn1 | > 5
O=C(NN1C(=O)[C@@H]2C3C=CC([C@H]4C[C@@H]34)[C@@H]2C1=O)c1ccc(C(F)(F)F)cc1 | > 5
O=C(O)c1ccc(-c2ccc(O[C@H]3O[C@H](CO)[C@@H](O)[C@H](O)[C@@H]3O)cc2)cc1 | > 5
CN(C)CCNC(=O)c1cccc2cccnc12 | > 5
c1ccc(Cn2c(-c3ccccn3)nc3ccccc32)cc1 | > 5
CC(N)C(=O)NC(CCCCN)C(=O)NC(CCCNC(=N)N)C(=O)NC(Cc1c[nH]cn1)C(=O)NC(Cc1c[nH]cn1)C(=O)NCC(=O)NC(Cc1ccc(O)cc1)C(=O)NC(CCCCN)C(=O)NC(CCCNC(=N)N)C(=O)NC(CCCCN)C(=O)NC(Cc1ccccc1)C(=O)NC(Cc1c[nH]cn1)C(N)=O (configuration not stated) | > 5
CCOC(=O)N[C@@H]1CC[C@@H]2[C@@H](C1)C[C@H]1C(=O)O[C@H](C)[C@H]1[C@H]2/C=C/c1ccc(-c2cccc(F)c2)cn1 | > 5
COc1ccccc1NC(=O)c1ccccc1Sc1ccc([N+](=O)[O-])cc1 | > 5
COc1ccc2c(c1OC)C(=O)OC2C1c2c(cc3c(c2OC)OCO3)CCN1C (configuration not stated) | > 5

SMILES | IC50 [µM]
O=C(N[C@H](CCS)C(=O)N[C@H](Cc1ccccc1)C(=O)O)c1cc2ccccc2[nH]1 | > 5
CCCCOC(=O)Nc1cc2nc(C3CCCCC3)[nH]c2cc1N(CC)CC | 1.79
CCCCc1ccc(-c2cc(C(=O)O)cc(-c3ccc(Cl)cc3)n2)cc1 | > 5
CN(C)c1[nH]c(=O)ncc1F | > 5
O=C(Nc1nnc(-c2ccc(Cl)cc2)o1)c1ccc(F)cc1 | > 5
CCOC(=O)/C=C/[C@H](C[C@@H]1CCNC1=O)NC(=O)[C@@H](CC(=O)[C@@H](NC(=O)c1cc(C)on1)C(C)C)Cc1ccc(F)cc1 | > 5
O=C(N[C@H](Cc1cccc2ccccc12)C(=O)NCCc1c[nH]cn1)C1Cc2ccccc2C1 | > 5
CCN1CCN(Cc2nc3ccc([N+](=O)[O-])cc3c(=O)n2-c2ccccc2F)CC1 | > 5
CC1(C)Cc2c(C#N)c(SCCc3ccccc3)nc(N3CCOCC3)c2CO1 | > 5
O=C(NC(=O)N1CCCc2ccccc21)c1ccc(Cl)cc1Cl | > 5
O=C(O)/C=C/C=C/c1cccc(Oc2cc(Cl)cc(Cl)c2)c1 | > 5
OB1OCc2c1ccc(Cl)c2F | > 5
COc1ccc(-n2cnc3cc(NCc4ccco4)ccc32)cc1 | > 5
O=C(/C=C\n1cnc(-c2cc(C(F)(F)F)cc(C(F)(F)F)c2)n1)NNc1ccccn1 | > 5
C[C@H]1CC[C@@]2(O)C(C)(C)[C@@H]3CC[C@@]2(C)[C@H]1C3 | > 5
NC(=O)c1ccccc1NC(=O)c1ccc(C(=O)Nc2ccccc2C(N)=O)cc1 | > 5
Nc1nc(-c2ccccc2)nc2c1ncn2[C@@H]1O[C@H](COS(=O)(=O)NC(=O)c2ccccc2O)[C@@H](O)[C@H]1O | > 5
CC1(C)CC(NC(=O)C(=O)Nc2ccc(Cl)cc2)CC(C)(C)N1 | > 5
Fc1ccc(-n2cc(Cn3c(-c4cccc(F)c4)nc4ccccc43)nn2)cc1 | > 5
O=C(CSc1nnc(Br)n1-c1ccc(C2CC2)c2ccccc12)Nc1ccc(C(=O)O)cc1Cl | > 5
COC(=O)Nc1nc2c(C)cccc2[nH]1 | > 5
CC(=O)Oc1ccccc1C(=O)Nc1ncc([N+](=O)[O-])s1 | > 5

Source: the supplement of paper PMC7801607
